Common to all, as to format: protein-complex assay
Assay [1] has as its target Integrin alpha-V/beta-5 (Homo sapiens) (UniProt P06756+P18084). In words: Binding to Vitronectin receptor (alphaV-beta5) coated microtiter plates.
Assay [2] deals with Fibronectin receptor (Integrin alpha-5/beta-1 and alpha-V/beta-3) (Homo sapiens) (UniProt P05106+P05556+P06756+P08648). The experiment in a line: Binding to Fibronectin receptor on vitronectin coated microtiter plates.
The target of assay [3] is Integrin alpha-V/beta-3 (Homo sapiens) (UniProt P05106+P06756). In words: Binding to Vitronectin receptor (alphaV-beta3) of PMA stimulated human-derived B lymphocyte on vitronectin coated microtiter plates.
Assay [4] concerns the target Integrin alpha-IIb/beta-3 (Homo sapiens) (UniProt P05106+P08514). The experiment in a line: Binding to IIb/IIIa on vitronectin coated microtiter plates in ELISA. (In general: In an ELISA, binding on a coated surface is turned into a signal by an enzyme label.)

Data on one compound can be found in ChEMBL document CHEMBL1129915, “A novel RGD containing dodecapeptidomimetic which exhibits selective binding to the v3 receptor” (Bioorg Med Chem Lett, 1997).

Sequence of Fibronectin receptor (Integrin alpha-5/beta-1 and alpha-V/beta-3) (Homo sapiens) (P05106 whole entry, looked up): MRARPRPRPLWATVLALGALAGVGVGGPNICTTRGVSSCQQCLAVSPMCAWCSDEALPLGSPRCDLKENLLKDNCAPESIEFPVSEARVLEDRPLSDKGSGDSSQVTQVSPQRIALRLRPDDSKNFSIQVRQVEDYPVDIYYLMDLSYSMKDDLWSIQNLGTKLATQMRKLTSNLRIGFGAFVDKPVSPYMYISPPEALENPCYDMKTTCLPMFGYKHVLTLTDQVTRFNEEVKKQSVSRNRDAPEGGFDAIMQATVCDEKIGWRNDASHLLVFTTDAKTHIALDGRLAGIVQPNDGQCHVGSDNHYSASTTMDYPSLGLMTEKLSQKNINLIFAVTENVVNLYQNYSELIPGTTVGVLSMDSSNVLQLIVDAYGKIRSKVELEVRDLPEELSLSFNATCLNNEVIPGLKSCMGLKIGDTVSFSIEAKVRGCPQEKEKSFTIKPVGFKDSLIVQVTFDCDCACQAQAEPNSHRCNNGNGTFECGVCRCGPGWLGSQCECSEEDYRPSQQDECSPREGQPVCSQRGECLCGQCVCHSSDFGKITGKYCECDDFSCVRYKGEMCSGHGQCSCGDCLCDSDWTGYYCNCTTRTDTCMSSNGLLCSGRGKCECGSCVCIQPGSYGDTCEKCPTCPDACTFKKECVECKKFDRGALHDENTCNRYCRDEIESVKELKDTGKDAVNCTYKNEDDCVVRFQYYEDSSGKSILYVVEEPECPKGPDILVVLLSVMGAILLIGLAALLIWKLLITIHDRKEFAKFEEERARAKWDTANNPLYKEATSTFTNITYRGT
Sequence of Fibronectin receptor (Integrin alpha-5/beta-1 and alpha-V/beta-3) (Homo sapiens) (P05556 whole entry, looked up): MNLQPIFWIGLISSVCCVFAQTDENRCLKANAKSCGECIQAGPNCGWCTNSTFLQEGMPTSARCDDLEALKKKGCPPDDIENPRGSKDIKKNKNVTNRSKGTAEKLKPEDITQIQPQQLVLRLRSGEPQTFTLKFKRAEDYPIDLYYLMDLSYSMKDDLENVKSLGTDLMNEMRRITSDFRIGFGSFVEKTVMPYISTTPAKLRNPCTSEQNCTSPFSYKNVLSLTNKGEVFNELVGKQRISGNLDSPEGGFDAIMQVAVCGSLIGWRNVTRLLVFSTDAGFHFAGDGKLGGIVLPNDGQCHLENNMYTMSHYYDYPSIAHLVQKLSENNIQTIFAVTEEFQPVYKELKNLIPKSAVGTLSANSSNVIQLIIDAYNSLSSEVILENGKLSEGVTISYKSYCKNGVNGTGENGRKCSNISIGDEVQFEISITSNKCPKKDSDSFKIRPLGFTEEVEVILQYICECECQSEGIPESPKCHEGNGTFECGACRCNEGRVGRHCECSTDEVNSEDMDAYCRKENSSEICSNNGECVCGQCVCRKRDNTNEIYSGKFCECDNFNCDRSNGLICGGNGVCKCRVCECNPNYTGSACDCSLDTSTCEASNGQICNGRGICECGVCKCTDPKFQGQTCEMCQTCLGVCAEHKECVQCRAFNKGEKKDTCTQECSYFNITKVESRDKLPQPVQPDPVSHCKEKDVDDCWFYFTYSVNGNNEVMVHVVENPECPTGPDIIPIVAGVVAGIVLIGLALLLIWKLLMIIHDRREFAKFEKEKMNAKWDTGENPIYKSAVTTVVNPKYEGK
Sequence of Fibronectin receptor (Integrin alpha-5/beta-1 and alpha-V/beta-3) (Homo sapiens) (P06756 whole entry, looked up): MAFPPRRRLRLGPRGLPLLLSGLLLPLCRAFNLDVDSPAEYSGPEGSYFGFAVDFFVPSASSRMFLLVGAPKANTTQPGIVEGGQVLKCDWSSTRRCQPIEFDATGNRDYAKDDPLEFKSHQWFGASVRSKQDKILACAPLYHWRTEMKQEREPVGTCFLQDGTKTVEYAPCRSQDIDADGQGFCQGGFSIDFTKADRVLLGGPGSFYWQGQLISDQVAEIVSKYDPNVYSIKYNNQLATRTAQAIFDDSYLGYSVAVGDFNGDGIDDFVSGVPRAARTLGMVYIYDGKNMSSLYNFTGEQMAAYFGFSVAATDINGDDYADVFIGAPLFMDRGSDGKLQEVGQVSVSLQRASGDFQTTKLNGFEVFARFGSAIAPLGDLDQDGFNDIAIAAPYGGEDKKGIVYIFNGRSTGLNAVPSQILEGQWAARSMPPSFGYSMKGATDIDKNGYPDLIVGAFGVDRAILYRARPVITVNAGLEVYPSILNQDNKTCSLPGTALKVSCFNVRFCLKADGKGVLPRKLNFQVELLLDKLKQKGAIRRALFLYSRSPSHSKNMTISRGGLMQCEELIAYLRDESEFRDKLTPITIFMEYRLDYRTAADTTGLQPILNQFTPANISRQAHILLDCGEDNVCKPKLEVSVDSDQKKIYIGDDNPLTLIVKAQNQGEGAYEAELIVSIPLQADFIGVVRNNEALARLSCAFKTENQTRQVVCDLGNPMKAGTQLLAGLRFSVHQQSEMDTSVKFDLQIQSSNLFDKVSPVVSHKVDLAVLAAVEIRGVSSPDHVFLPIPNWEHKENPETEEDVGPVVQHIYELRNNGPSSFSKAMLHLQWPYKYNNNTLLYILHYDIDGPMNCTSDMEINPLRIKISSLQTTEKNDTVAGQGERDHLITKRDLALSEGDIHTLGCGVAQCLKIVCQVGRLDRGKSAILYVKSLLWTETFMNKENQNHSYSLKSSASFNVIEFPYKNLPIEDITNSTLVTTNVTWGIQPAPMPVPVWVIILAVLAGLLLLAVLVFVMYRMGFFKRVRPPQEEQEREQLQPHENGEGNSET
Sequence of Fibronectin receptor (Integrin alpha-5/beta-1 and alpha-V/beta-3) (Homo sapiens) (P08648 whole entry, looked up): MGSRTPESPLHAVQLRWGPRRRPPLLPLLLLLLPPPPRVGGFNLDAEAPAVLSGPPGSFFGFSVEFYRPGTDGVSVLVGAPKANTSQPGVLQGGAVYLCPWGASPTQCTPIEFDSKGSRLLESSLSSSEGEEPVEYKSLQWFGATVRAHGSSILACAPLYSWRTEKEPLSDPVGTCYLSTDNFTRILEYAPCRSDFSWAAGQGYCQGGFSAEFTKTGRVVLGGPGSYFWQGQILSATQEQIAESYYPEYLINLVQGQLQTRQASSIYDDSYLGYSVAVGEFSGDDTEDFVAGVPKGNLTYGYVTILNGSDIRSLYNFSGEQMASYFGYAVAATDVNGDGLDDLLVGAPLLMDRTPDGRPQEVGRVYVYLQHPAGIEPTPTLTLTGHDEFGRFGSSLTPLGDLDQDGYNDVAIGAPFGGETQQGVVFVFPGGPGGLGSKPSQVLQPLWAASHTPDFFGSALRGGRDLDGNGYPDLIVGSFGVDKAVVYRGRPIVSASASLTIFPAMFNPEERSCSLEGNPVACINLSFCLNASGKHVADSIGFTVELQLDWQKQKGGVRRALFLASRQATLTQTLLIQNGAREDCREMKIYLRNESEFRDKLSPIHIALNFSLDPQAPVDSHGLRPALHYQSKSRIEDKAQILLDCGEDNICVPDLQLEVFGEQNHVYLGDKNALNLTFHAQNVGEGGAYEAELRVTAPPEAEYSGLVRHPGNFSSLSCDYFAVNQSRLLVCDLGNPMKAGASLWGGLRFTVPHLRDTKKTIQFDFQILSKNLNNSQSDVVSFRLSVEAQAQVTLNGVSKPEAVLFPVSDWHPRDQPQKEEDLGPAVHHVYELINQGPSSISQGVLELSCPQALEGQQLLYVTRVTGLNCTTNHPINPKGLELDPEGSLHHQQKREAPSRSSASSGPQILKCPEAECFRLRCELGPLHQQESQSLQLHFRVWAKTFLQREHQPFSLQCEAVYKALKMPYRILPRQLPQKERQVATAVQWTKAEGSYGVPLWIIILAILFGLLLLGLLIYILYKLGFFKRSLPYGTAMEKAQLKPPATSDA

For `NCC(=O)N[C@@H](CCCN=C(N)N)C(=O)NCC(=O)N[C@@H](CC(=O)O)C(=O)N[C@@H](CO)C(=O)N1CCC[C@H]1C(=O)O`, the Binding activity was determined as 0.582 µM in assay [1], 0.02 µM in assay [2], 50 µM in assay [3] and 0.8 µM in assay [4].
